Tests used:
MDA-MB-231 cells = experiment: Cell validation: cytotoxicity in MDA-MB-231 cells (CellTiter-Glo); assay type: cell-based; settings: cytotoxicity in MDA-MB-231 cells; for IC50: Homo sapiens
Procedure: (§1) The in vitro validation was performed by measuring KIF2C kinesin activity using malachite green-based phosphate colorimetric assay (BioVision). […] The microtubules from porcine brain tubulin (Cytoskeleton) or purified from HEK293 cells in Free-style medium (293Fs) were dissolved in the BRB80 buffer (80 mM PIPES pH 6.8, 1 mM EGTA, 1 mM MgCl2, 1 mM GTP, 1 mM DTT, and 10% DMSO) at 37° C. for 2 hr. Phosphates released from kinesin-mediated ATP hydrolysis was measured by adding 30 μL of the phosphate colorimetric reagent (BioVision), incubated for 10 min, and then measured with absorbance at 650 nm. […] The cell validation was performed by measuring cytotoxicity in MDA-MB-231 cells. The cells were cultured in a 96-well plate at a confluence of 2000 cells/well with indicates compounds for specific days. When the time was up, the culture medium in the plate was aspirated and replaced with a prepared CellTiter-Glo reagent (Promega)/DMEM mixture (1:1 mix of CellTiter-Glo reagent and serum-supplemented DMEM). After incubation for 10 min, the luminescence was measured with an ELISA plate reader to determine the cell viability.
The cancer cells were cultured in a 96-well plate at a confluence of 1000-2000 cells/well with indicated drugs for specific days. When the time was up, the culture medium in the plate was aspirated and replaced with a prepared CellTiter-Glo reagent/DMEM mixture (1:1 mix of CellTiter-Glo reagent and serum-supplemented DMEM). After incubation for 10 min, the luminescence (proportional to the number of living cells) was measured with an ELISA plate reader to determine the cell viability.

KIF2C = molecular target: T1, KIF2C (Homo sapiens, UniProt Q99661); experiment: In vitro validation: KIF2C kinesin activity, malachite green-based phosphate colorimetric assay; assay type: biochemical; settings: for EC50: concentration that inhibits 50% of KIF2C activity
T1 construct: KIF2C (216-598 a.a.); 6xHis (C); made in house; host or cells: E. coli BL21 (DE3), pET-28a
T1 sequence (Q99661 216-598): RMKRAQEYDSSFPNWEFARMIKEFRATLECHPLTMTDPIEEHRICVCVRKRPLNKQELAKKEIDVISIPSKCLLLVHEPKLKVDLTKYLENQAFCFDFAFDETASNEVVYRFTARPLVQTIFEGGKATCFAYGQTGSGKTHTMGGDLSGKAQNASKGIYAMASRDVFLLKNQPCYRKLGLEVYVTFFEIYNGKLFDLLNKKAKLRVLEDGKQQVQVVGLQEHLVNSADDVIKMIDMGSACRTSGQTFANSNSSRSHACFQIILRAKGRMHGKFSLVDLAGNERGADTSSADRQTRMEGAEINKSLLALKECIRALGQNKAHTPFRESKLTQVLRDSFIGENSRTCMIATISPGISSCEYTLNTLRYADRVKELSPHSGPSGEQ
Procedure: as §1
In vitro kinesin activity was measured using malachite green-based phosphate colorimetric assay (BioVision). […] The microtubules from porcine brain tubulin (Cytoskeleton) or purified from HEK293 cells in Free-style medium (293Fs) were dissolved in the BRB80 buffer (80 mM PIPES pH 6.8, 1 mM EGTA, 1 mM MgCl2, 1 mM GTP, 1 mM DTT, and 10% DMSO) at 37° C. for 2 hr. Phosphates released from kinesin-mediated ATP hydrolysis was measured by adding 30 μL of the phosphate colorimetric reagent (BioVision), incubated for 10 min, and then measured with absorbance at 650 nm.
Constructs of sN+M regions of KIF2C (216-598 a.a.), KIF2A (181-562 a.a.) and KIF2B (171-553 a.a.) with C-terminal 6×His tag were subcloned into pET-28a vector and expressed in BL21 (DE3) E. coli cells (Novartis) cultured in Luria-Bertani medium supplemented with 50 ug/mL kanamycin at 37° C. After induction with 0.8 mM IPTG for 18 hr at 20° C., the cells were pelleted by centrifugation at 6000 rpm for 30 min at 10° C. The collected pellets were resuspended in 30 mL of buffer A (20 mM Tris-HCl pH 7.5, 500 mM NaCl, 10 mM imidazole, 1% CHAPS, and 1 mM PMSF) and next subjected to a high-pressure homogenizer (EmulsiFlex-C3) for cell lysis. After removing the cell debris by centrifugation at 13000 rpm for 30 min at 10° C., the recombinant Kinesin-13 in the supernatant was purified using nickel affinity chromatography. Firstly, the supernatant was applied to the Ni-NTA column (GE Healthcare) pre-equilibrated with buffer A. Secondly, the column was washed with 10× column volumes of buffer A to remove the unwanted proteins. The washed column was then eluted with 10× column volumes of buffer containing increasing concentrations of imidazole (40, 100, 300, 1000 mM), and the majority of the recombinant Kinesin-13 protein was eventually obtained in a fraction of 300 mM imidazole. The fractions containing the recombinant Kinesin-13 were subsequently concentrated in the buffer B (20 mM Tris-HCl pH 7.5, 10 mM imidazole, 50 mM NaCl, 2 mM DTT) using an Amicon® Ultra filter (Millipore) and subjected to cation exchange column (Capto S, GE Healthcare) for further purification. The recombinant Kinesin-13 was then eluted in elution buffer (20 mM Tris-HCl pH 7.5 and 2 mM DTT) containing 400 mM of NaCl and stored at −80° C. for long-term storage.

| SMILES | IC50 (MDA-MB-231 cells) [µM] | EC50 (KIF2C) [µM] | Cell validation (IC50) (MDA-MB-231 cells) | KIF2C activity in reaction containing nocodazole (in words) (KIF2C; 1 μM nocodazole) |
| --- | --- | --- | --- | --- |
| CC1=C(C(=O)OC(C)C)C(c2ccc(Cl)cc2)n2c(s/c(=C\c3ccc(OCc4nn[nH]n4)cc3)c2=O)=N1 (stereo not shown) [33S0 (115), isopropyl (Z)-2-(4-((2H-tetrazol-5-yl)methoxy)benzylidene)-5-(4-chlorophenyl)-7-methyl-3-oxo-2,3-dihydro-5H-thiazolo[3,2-a]pyrimidine-6-carboxylate] | > 50 | < 20 |  |  |
| CCN1CCN(C(=O)COc2ccc(/C=c3\sc4n(c3=O)C(c3cccc(Cl)c3)C(C(=O)OC(C)C)=C(C)N=4)cc2)CC1 (stereo not shown) [16S0 (67), isopropyl (Z)-5-(3-chlorophenyl)-2-(4-(2-(4-ethylpiperazin-1-yl)-2-oxoethoxy)benzylidene)-7-methyl-3-oxo-2,3-dihydro-5H-thiazolo[3,2-a]pyrimidine-6-carboxylate] |  | 50 to 100 | + + |  |
| CCOC(=O)C1=C(C)N=c2s/c(=C\c3ccc(OCC(=O)O)cc3)c(=O)n2C1c1ccc(Cl)cc1 (stereo not shown) [12S0 (79), (Z)-2-(4-((5-(4-chlorophenyl)-6-(ethoxycarbonyl)-7-methyl-3-oxo-5H-thiazolo[3,2-a]pyrimidin-2(3H)-ylidene)methyl)phenoxy)acetic acid] | > 50 | < 20 |  |  |
| CC1=C(C(=O)OC(C)C)C(c2ccc(Cl)cc2)n2c(s/c(=C\c3ccc(OCC#N)cc3)c2=O)=N1 (stereo not shown) [38S0 (117), isopropyl (Z)-5-(4-chlorophenyl)-2-(4-(cyanomethoxy)benzylidene)-7-methyl-3-oxo-2,3-dihydro-5H-thiazolo[3,2-a]pyrimidine-6-carboxylate] | > 50 | > 100 |  |  |
| CCN1CCN(C(=O)COc2ccc(/C=c3\sc4n(c3=O)C(c3ccc(N(C)C)cc3)C(C(=O)OC(C)C)=C(C)N=4)cc2)CC1 (stereo not shown) [Compound 147] |  | < 50 | + + |  |
| CC1=C(C(=O)OC(C)C)C(c2ccc(Cl)cc2)n2c(s/c(=C\c3ccc4c(c3)OCO4)c2=O)=N1 (stereo not shown) [34S0 (24), isopropyl (Z)-2-(benzo[d][1,3]dioxol-5-ylmethylene)-5-(4-chlorophenyl)-7-methyl-3-oxo-2,3-dihydro-5H-thiazolo[3,2-a]pyrimidine-6-carboxylate] | > 50 | > 100 |  |  |
| CC1=C(C(=O)OC(C)C)C(c2ccc(F)cc2)n2c(s/c(=C\c3ccc(OCC(=O)O)cc3)c2=O)=N1 (stereo not shown) [9S0 (32), (4-(((2Z)-5-(4-fluorophenyl)-7-methyl-3-oxo-6-((propan-2-yloxy)carbonyl)-5H-[1,3]thiazolo[3,2-a]pyrimidin-2(3H)-ylidene)methyl)phenoxy)acetic acid] | > 50 | < 50 |  |  |
| CC1=C(C(=O)OC(C)C)C(c2ccc(Cl)cc2)n2c(s/c(=C\c3ccc(OCC(=O)N4CCC(N5CCN(C)CC5)CC4)cc3)c2=O)=N1 (stereo not shown) [24S0 (19), isopropyl (Z)-5-(4-chlorophenyl)-7-methyl-2-(4-(2-(4-(4-methylpiperazin-1-yl)piperidin-1-yl)-2-oxoethoxy)benzylidene)-3-oxo-2,3-dihydro-5H-thiazolo[3,2-a]pyrimidine-6-carboxylate] |  | < 50 | + + + + |  |
| CC1=C(C(=O)OC(C)C)C(c2ccc(Cl)cc2)n2c(s/c(=C\c3ccc(OCC(=O)N4CCC(N(C)C)CC4)cc3)c2=O)=N1.O=C(O)/C=C\C(=O)O (stereo not shown) [23S9 (134), isopropyl (Z)-5-(4-chlorophenyl)-2-(4-(2-(4-(dimethylamino)piperidin-1-yl)-2-oxoethoxy)benzylidene)-7-methyl-3-oxo-2,3-dihydro-5H-thiazolo[3,2-a]pyrimidine-6-carboxylate maleate] |  | < 50 | + + + |  |
| CCOC(=O)C1=C(C)N=c2s/c(=C\c3ccc(OCC(=O)OC)cc3)c(=O)n2[C@H]1c1ccc(Cl)cc1 [45S0 (129)] | > 50 | > 100 |  |  |
| CC1=C(C(=O)OC(C)C)C(c2ccc(Cl)cc2)n2c(s/c(=C\c3ccc(OC(C)(C)C(=O)O)cc3)c2=O)=N1 (stereo not shown) [47S0 (107), (Z)-2-(4-((5-(4-chlorophenyl)-6-(isopropoxycarbonyl)-7-methyl-3-oxo-5H-thiazolo[3,2-a]pyrimidin-2(3H)-ylidene)methyl)phenoxy)-2-methylpropanoic acid] | > 50 | > 100 |  |  |
| CC1=C(C(=O)OC(C)C)C(c2ccc(Cl)cc2)n2c(s/c(=C\c3ccc(OCCCO)cc3)c2=O)=N1 (stereo not shown) [39S0 (118), isopropyl (Z)-5-(4-chlorophenyl)-2-(4-(3-hydroxypropoxy)benzylidene)-7-methyl-3-oxo-2,3-dihydro-5H-thiazolo[3,2-a]pyrimidine-6-carboxylate] | > 50 | > 100 |  |  |
| CCC1=C(C(=O)OC(C)C)C(c2ccc(Cl)cc2)n2c(s/c(=C\c3ccc(OCC(=O)N4CCN(C)CC4)cc3)c2=O)=N1 (stereo not shown) [28S0 (105), isopropyl (Z)-5-(4-chlorophenyl)-7-ethyl-2-(4-(2-(4-methylpiperazin-1-yl)-2-oxoethoxy)benzylidene)-3-oxo-2,3-dihydro-5H-thiazolo[3,2-a]pyrimidine-6-carboxylate] | 20 to 50 | > 100 |  |  |
| CC1=C(C(=O)O)C(c2ccc(N(C)C)cc2)n2c(s/c(=C\c3ccc(OCC(=O)N4CCC(N5CCN(C)CC5)CC4)cc3)c2=O)=N1 (stereo not shown) [Compound 149] | > 50 | < 50 |  |  |
| CCOC(=O)C1=C(C)N=c2s/c(=C\c3ccc(OCC(=O)N4CCN(C)CC4)cc3)c(=O)n2C1c1ccc(Cl)cc1 (stereo not shown) [49S0 (94)] |  | 50 to 100 | + + |  |
| COC(=O)C1=C(C)N=c2s/c(=C\c3ccc(OCC(=O)O)cc3)c(=O)n2C1c1ccc(Cl)cc1 (stereo not shown) [14S0 (78), (Z)-2-(4-((5-(4-chlorophenyl)-6-(methoxycarbonyl)-7-methyl-3-oxo-5H-thiazolo[3,2-a]pyrimidin-2(3H)-ylidene)methyl)phenoxy)acetic acid] | > 50 | 50 to 100 |  |  |
| CCOC(=O)C1=C(C)N=c2s/c(=C\c3ccc(OCC(=O)N4CCN(C)CC4)cc3)c(=O)n2C1c1ccc(N(C)C)cc1 (stereo not shown) [Compound 143] | 20 to 50 | 50 to 100 |  |  |
| CC1=C(C(=O)OCc2ccccc2)C(c2ccc(Cl)cc2)n2c(s/c(=C\c3ccc(OCC(=O)N4CCN(C)CC4)cc3)c2=O)=N1 (stereo not shown) [29S0 (97), benzyl (Z)-5-(4-chlorophenyl)-7-methyl-2-(4-(2-(4-methylpiperazin-1-yl)-2-oxoethoxy)benzylidene)-3-oxo-2,3-dihydro-5H-thiazolo[3,2-a]pyrimidine-6-carboxylate] |  | 50 to 100 | + + + |  |
| CC1=C(C(=O)OC(C)C)C(c2ccc(Cl)cc2)n2c(s/c(=C\c3ccc(OCC(=O)N4CCC(N5CCN(C)CC5)CC4)cc3)c2=O)=N1.O=C(O)/C=C\C(=O)O (stereo not shown) [24S9 (135), isopropyl (Z)-5-(4-chlorophenyl)-7-methyl-2-(4-(2-(4-(4-methylpiperazin-1-yl)piperidin-1-yl)-2-oxoethoxy)benzylidene)-3-oxo-2,3-dihydro-5H-thiazolo[3,2-a]pyrimidine-6-carboxylate maleate] |  |  | + + + + |  |
| CCOC(=O)C1=C(C)N=c2s/c(=C\c3ccc(OCC(=O)O)cc3)c(=O)n2[C@H]1c1ccc(Cl)cc1 [55S0 (131)] | > 50 | > 100 |  |  |
| COC(=O)Nc1nc2ccc(C(=O)c3cccs3)cc2[nH]1 [nocodazole, reference compound] |  |  |  | largely reduced |
